Like-named read-outs stand apart in the source and are kept apart here. One block for each substance: values may come before it.
Assays:
rat APJ = target: T1, rat APJ (Rattus norvegicus, UniProt Q9JHG3); assay: ERK1/2 activation (ppERK1/2 immunostaining, IN Cell Analyzer) in CHO-B78 cells; assay type: cell-based; details: 10min at 37°C
T1 construct: expressed in transfected cells; host or cells: CHO cells, stably transfected clonal line CHO-B78
T1 sequence (Q9JHG3 1-377): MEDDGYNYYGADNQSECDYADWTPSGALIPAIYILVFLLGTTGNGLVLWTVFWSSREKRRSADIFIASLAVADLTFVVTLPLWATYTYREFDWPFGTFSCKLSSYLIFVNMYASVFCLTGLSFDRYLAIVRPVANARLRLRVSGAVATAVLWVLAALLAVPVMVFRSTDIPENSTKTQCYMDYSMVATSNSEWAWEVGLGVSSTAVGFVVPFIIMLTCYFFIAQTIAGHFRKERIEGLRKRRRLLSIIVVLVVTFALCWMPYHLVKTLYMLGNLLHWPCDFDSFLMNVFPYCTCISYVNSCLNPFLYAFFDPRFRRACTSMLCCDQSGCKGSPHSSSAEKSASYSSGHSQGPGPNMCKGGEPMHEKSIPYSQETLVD
Experimental: Chinese hamster ovary (CHO) cells were transfected with the rat aplnr cDNA (B78 [23]) as previously described [26]. Stably-transfected clonal cells were obtained by limiting dilution, and expression of aplnr was determined by Northern dot blots using two ^32P-dATP-labelled 48bp oligonucleotide specific for the rat aplnr sequence (B78A and B78B [23]; see ISHH below). The highest aplnr-expressing cell clones were expanded for use, and one line (CHO-B78) was used for branched-chain in situ hybridization histochemistry and ERK signal transduction assays (see below).
The nuclear and cytoplasmic fluorescence intensities in individual cells were quantified (in arbitrary units)—data was normalized to vehicle controls after subtraction of ‘no primary antibody’ backgrounds. In each experiment the data (nuclear + cytoplasmic ppERK measurements) is mean ± SEM, n = 6 (approx 1200 cells imaged from 3 wells of a 96-well plate; experiments repeated twice).
IN Cell Analyser 1000 experiments were performed in triplicate wells, with experiments performed at least 2 times. Statistical analysis was with a one-way ANOVA and post hoc Dunnett’s test with GraphPad Prism software (version 4.0b). p<0.05 was considered as statistically significant.
Cells were treated for 10min at 37°C with the indicated concentration of ligands. […]

APJ = tested on: APJ; set-up: method as in 3 sources, one per row (each row's own in cited_ref): ref [11],[12] = [11]; PMID 25995451; doi:10.1074/jbc.M115.648238; 11 Deng C , Chen H , Yang N , Feng Y , Hsueh AJW . Apela regulates fluid homeostasis by binding to the APJ receptor to activate Gi signaling . J Biol Chem . 2015; 290 : 18261 – 18268 . doi: 10.1074/j || [12]; PMID 25639753; doi:10.1038/srep08170; 12 Wang Z , Yu D , Wang M , Wang Q , Kouznetsova J , Yang R , et al Elabela-apelin receptor signaling pathway is functional in mammalian systems . Sci Rep . 2015; 5 : 8170 doi: 10.1038/srep08170 2563 ||| ref [2] = [2]; PMID 23943882; doi:10.1530/JOE-13-0227; 2 O’Carroll A-M , Lolait SJ , Harris LE , Pope GR . The apelin receptor APJ: journey from an orphan to a multifaceted regulator of homeostasis . J Endocrinol . 2013; 219 : 13 – 35 . 23943882 10.1530/ ||| ref [11] = [11]; PMID 25995451; doi:10.1074/jbc.M115.648238; 11 Deng C , Chen H , Yang N , Feng Y , Hsueh AJW . Apela regulates fluid homeostasis by binding to the APJ receptor to activate Gi signaling . J Biol Chem . 2015; 290 : 18261 – 18268 . doi: 10.1074/j; details: cited from earlier work
Text: APJ activation by apelin-13 may involve multiple G proteins, while some actions involving ... || A second endogenous ligand for APJ has recently been discovered. Originally annotated as a long non-coding (nc) RNA (termed Ende) expressed primarily in the definitive endoderm during mouse embryogenesis, the apela (otherwise known as elabela or toddler) gene is also translated. It encodes a predicted 54 (58 in zebrafish) amino acid precursor molecule that is highly conserved across vertebrates and is structurally distinct from the apelin prohormone. The apela precursor can be enzymatically processed into a number of biologically active proteoforms such as ... || APJ was an orphan GPCR [23, 31] until its endogenous ligand apelin was isolated from stomach extracts by ‘reverse pharmacology’ almost 20 years ago [32]. It has recently been proposed that apela, a distinct protein unrelated to apelin, and highly conserved across vertebrates, is a new endogenous ligand for APJ.

[1] = tested on: GPCR CXCR4 in cultured human umbilical vein endothelial cells; details: apela stimulation or knockdown, ref [41]; cited from earlier work
Text: (§1) The expression of genes for one or both APJ-ligands with their receptor in the same cell, or cells expressing either ligand gene in the close proximity of APJ-expressing cells, raises the possibility of autocrine and/or paracrine actions for the apelinergic system within the heart and kidney. […] Aplnr and apelin appear to be co-localized in endothelial cell ...

[2] = exogenously administered; ref [17]; cited from earlier work
Text: (§2) This depends on apela binding heterogeneous nuclear ribonucleoprotein L (hnRNPL), an inhi ...

[3] = tested on: human embryonic stem cells (ESCs); details: which did not express aplnr, ref [18]; cited from earlier work
Text: as §2

[4] = tested on: cardiac contractility in adult rodents and humans; details: in vivo, ref [2],[20],[33],[34],[35]; cited from earlier work
Text: In zebrafish, apela is expressed primarily in the embryonic heart and appears to be the main APJ ligand in ...

[5] = tested on: a number of tissues and cells; set-up: method as in PMID 23943882, PMID 25936916; details: ref [2],[19]; cited from earlier work
Text: Many questions remain to be explored. For example, does apela in its ncRNA or peptide form(s) contribute to the pathological dispositions of some cardiovascular and metabolic conditions?

renal APJ = details: cited from earlier work
Text: as §1, with “This depends on apela binding heterogeneous nuclear ribonucleoprotein L (hnRNPL), an inhi ... || The” for “The”

collecting duct APJ = details: proposed, acting on collecting duct APJ; ref [24]; cited from earlier work
Text: Apela mRNA transcripts appear to be more prevalent during development. They are predominantly expressed in the heart of embryonic rodents and zebrafish, and are also detected in isolated cells from the adult rat heart, and in adult rat and mouse kidney by RT-PCR. The precise renal location of apela gene expression in the kidney has not been reported. Evidence for renal apelin expression is less convincing—it appears to be sparsely distributed in tissue endothelial cells and perhaps vascular epithelial cells and glomeruli. In the rat and ...

microdissected glomeruli = microdissected glomeruli in vitro; ref [22]; cited from earlier work
Text: as §1

EC50 (rat APJ; CHO-B78 cells stably transfected with rat aplnr, 0.01-1000nM ligand, serum-starved O/N (0.1% foetal calf serum), whole-cell (nuclear + cytoplasmic) ppERK immunofluorescence, averaged from two separate experiments, triplicate wells, read-out: EC50 for ERK activation): 0.0159 µM
Substance: apela-32: rat apela-32 (cyclized, pyroglutamated; Severn Biotech, U.K.) (EKSVNFPRRRKLYRHNCFRRRCISLHSRVPFP; not fully specified; N-terminal pyroglutamate (from Gln1 of the mature peptide))

Substance: apela: second endogenous ligand for APJ; gene encodes a predicted 54 amino acid precursor molecule
ERK activation in APJ-expressing cells (APJ; in vitro, previous studies confirmed by this paper, ref [11]): stimulates ERK activation in APJ-expressing cells in vitro
ERK activation (stimulation vs basal) (rat APJ; CHO-B78 cells, rat APJ, one-way ANOVA with post hoc Dunnett's test vs vehicle (basal)): activates signal transduction pathways (ERK activation) in cells expressing the cloned rat APJ
effect on CXCR4 expression [1]: no effect
effect on food intake [2]: anorexigenic
PI3K/Akt pathway activation [3]: activates the PI3K/Akt pathway
effect on apoptosis [3]: anti-apoptotic
effect on cardiac contractility [4]: increase cardiac contractility
anti-apoptotic activity [5]: anti-apoptotic activity
effect on diuresis (renal APJ; exogenously administered, ref [11]): promotes diuresis

Substance: apelin
signal transduction pathways activated on binding APJ (APJ; often G protein-dependent, ref [2]): inhibition of adenylate cyclase, stimulation of MAP kinase (ERK) phosphorylation, Akt phosphorylation that could contribute to neuroprotection, and enhancing nitric oxide synthase activity
effect on cardiac contractility [4]: increase cardiac contractility
anti-apoptotic activity [5]: anti-apoptotic activity

Substance: apelin-17
effect on antidiuretic action of arginine vasopressin (collecting duct APJ): counteracts the antidiuretic effect of arginine vasopressin
effect on haemodynamic function in glomeruli (microdissected glomeruli): effects haemodynamic function in microdissected glomeruli in vitro
effect on diuresis (renal APJ; intravenous, ref [22]): causes diuresis

From PMC5560558, “Expression and functional implications of the renal apelinergic system in rodents” (PLoS ONE, 2017)
